Data reported in publication PMC7156458, “Synthetic biology based construction of biological activity-related library of fungal decalin-containing diterpenoid pyrones” (Nature Communications, 2020).
Several values for one entry are separate records, joined by “and”; a condition that tells them apart may be missing. Equal values may be shown once. Entries after “also recorded” stand apart in the source; their conditions may differ.

Assays:
MCF-7 cells = assay: mammosphere formation assay; format: cell-based, human; conditions: MCF-7, 5 μM; for MFE (%) ave / MFE (control = 1) ave / MFE (%): 7 days; for MFE (%) ave: mean of 3, control 0.87; for MFE (control = 1) ave: relative to control = 1; for MFE (%): single replicates
Experimental: (§1) We also evaluated antiproliferative activity against cancer stem cells (CSCs), which are a small sub-population in tumour bulk identified in most cancer cells and clinical samples[52]. CSCs have been a major problem in cancer therapy because they are responsible for recurrence, metastasis and drug resistance to chemotherapeutic agents that affect proliferative cells[53]–[56]. Anti-CSC activity was evaluated by the inhibition of sphere-forming ability, a well-studied method to enrich the CSC-like population, and selective cytotoxicity against one of the most reliable CSC markers, aldehyde dehydrogenase (ALDH)-positive cells. […] Low-toxicity 16 was also added as a negative control. […] We next evaluated the three DDPs that inhibited mammosphere formations against ALDH-positive cells, a functional marker for breast CSCs. MCF-7 cells were treated with 1 μM of 11, 12 or 22, and the ALDH-positive cell population was analysed by using a fluorescence activated cell sorter (Supplementary Fig. 46b). […] Thus, for the first time, we successfully found DDPs with potent antiproliferative effects on the CSC-like population in MCF-7 cells, which may lead to new anti-CSC drugs.
(§2) Fig. 5 DDPs show anti-CSC activity in breast cancer cell line MCF-7. a Effect of DDPs on mammosphere formation. After the cells were cultured in the presence of 5 μM DDPs for 7 days, the number of mammospheres was microscopically counted and the percentage of mammosphere-forming cells was determined as mammosphere-forming efficiency (MFE; %). Data represent mean ± s.d. from three independent replicate experiments. P-values were calculated by a two-sided unpaired Student’s t-test, compared with control. b Micrographs show representative images of mammosphere formation from three independent replicate experiments using compound 11, 12, 16, 22. The scale bar, […]. c Effect of DDPs (1 μM, 3 days) on ALDH-positive cells in MCF-7 cells. Data represent mean ± s.d. from three independent replicate experiments. P-values were calculated by a two-sided unpaired Student’s t-test, compared with control. d Dose-dependent effect of compound 12 on ALDH-positive cells in MCF-7 cells. Data represent mean ± s.d. from three independent replicate experiments. P-values were calculated by a two-sided unpaired Student’s t-test. Source data underlying Fig. 5a, c, d are provided in a Source Data file.

[1] = test system: ALDH-positive cells in MCF-7 cells; assay: ALDH-positive cell population (ALDEFLUOR, flow cytometry); format: cell-based, human; conditions: for population of ALDH-positive cells / ALDH-positive cells ave (fold) / ALDH-positive cells ave / ALDH-positive cells (%): MCF-7, 1 μM; for ALDH-positive cells ave (fold) / ALDH-positive cells ave / ALDH-positive cells (%): 3 days; for ALDH-positive cells ave (fold): control = 1; for ALDH-positive cells ave: mean of 3, control 1.4; for ALDH-positive cells (%) / ALDH (+) Cell number (10^4 cells) / ALDH (-) Cell number (10^4 cells): single replicates; for ALDH (+) Cell number (10^4 cells) ave: 0 µM 1.61; for ALDH (-) Cell number (10^4 cells) ave: 0 µM 133.39; for ALDH (+) Cell number ave (fold) / ALDH (-) Cell number ave (fold): 0 µM = 1
Experimental: as §1, §2
!" ' ' '! !" ' ' '! !" ' ' '!!" ' ' '!!" ' ' '!!" ' ' '!!" ' ' '!!" ' ' '! !" ' ' '! !" ' ' '! !" ' ' '! !"#$ ( % ) * '! '' '# '+ '$ '( '% […]
Main population Single cells Single cells
(negative control) Without DEAB […]
P-values are calculated using a two-sided unpaired Student’s t-test; * p < 0.05, ** p < 0.01, compared with control. b, Gating strategy of flow cytometry analysis for detecting ALDH-positive cells. All samples were analyzed by sequential gating including main population (G1), single cells (G2, G3). Negative control with DEAB was used to establish G4 (ALDH-negative cells) and G5 (ALDH-positive cells). […]
Policy information about cell lines […]
were distributed from National Cancer Institute (Frederick, MD). HT-29, MCF-7, DU-145 and PC-3 were purchased from […]

SMILES | MFE (%) ave (MCF-7 cells) [%] | MFE (control = 1) ave (MCF-7 cells) | MFE (%) (MCF-7 cells) | effect on sphere formation (MCF-7 cells) | population of ALDH-positive cells [1] | ALDH-positive cells ave (fold) [1] [fold] | ALDH-positive cells ave [1] [%] | ALDH-positive cells (%) [1] | further results
C=C1CC[C@H]2[C@]3(C)C[C@@H](C=C(C)C)O[C@H]3CC[C@]2(C)[C@@H]1Cc1c(O)c(C)c(C)oc1=O [Compound 5, subglutinol A] | 1.13 | 1.30 | 1.04% and 1.24% and 1.10% |  |  |  |  |  | 
C=C1CCC2C(C)(CCC=C(C)C)C(O)CCC2(C)C1Cc1c(OC)oc(C)c(C)c1=O (centres unmarked) [Compound 11] | 0.46 | 0.53 | 0.47% and 0.44% | clearly inhibited sphere formation | reduced the population of ALDH-positive cells | 0.40 | 0.57 | 0.4% and 0.9% | 
C=C1CCC2C(C)(CCC=C(C)C)C(O)CCC2(C)C1Cc1c(OC)oc(CO)c(C)c1=O (centres unmarked) [Compound 12] | 0.21 | 0.24 | 0.18% and 0.21% and 0.23% | clearly inhibited sphere formation; also recorded: strongest effect on sphere formation | reduced the population of ALDH-positive cells | 0.29 | 0.40 | 0.4% and 0.6% and 0.2% | ALDH (+) Cell number (10^4 cells) ave ([1]; MCF-7, 0.1 µM): 0.68 10^4 cells; ALDH (-) Cell number (10^4 cells) ave ([1]; MCF-7, 0.1 µM): 96.66 10^4 cells; ALDH (+) Cell number ave (fold) ([1]; MCF-7, 0.1 µM): 0.42 fold; ALDH (-) Cell number ave (fold) ([1]; MCF-7, 0.1 µM): 0.72 fold; ALDH (+) Cell number (10^4 cells) ([1]; MCF-7, 0.1 µM): 0.81 10^4 cells and 0.72 10^4 cells and 0.50 10^4 cells; ALDH (-) Cell number (10^4 cells) ([1]; MCF-7, 0.1 µM): 89.19 10^4 cells and 102.28 10^4 cells and 98.51 10^4 cells; ALDH (+) Cell number (10^4 cells) ave ([1]; MCF-7, 0.3 µM): 0.09 10^4 cells; ALDH (-) Cell number (10^4 cells) ave ([1]; MCF-7, 0.3 µM): 33.24 10^4 cells; ALDH (+) Cell number ave (fold) ([1]; MCF-7, 0.3 µM): 0.0565 fold; ALDH (-) Cell number ave (fold) ([1]; MCF-7, 0.3 µM): 0.25 fold; ALDH (+) Cell number (10^4 cells) ([1]; MCF-7, 0.3 µM): 0.054 10^4 cells and 0.12 10^4 cells and 0.10 10^4 cells; ALDH (-) Cell number (10^4 cells) ([1]; MCF-7, 0.3 µM): 26.95 10^4 cells and 38.88 10^4 cells and 33.90 10^4 cells; ALDH (+) Cell number (10^4 cells) ave ([1]; MCF-7, 1 µM): 0.09 10^4 cells; ALDH (-) Cell number (10^4 cells) ave ([1]; MCF-7, 1 µM): 23.57 10^4 cells; ALDH (+) Cell number ave (fold) ([1]; MCF-7, 1 µM): 0.06 fold; ALDH (-) Cell number ave (fold) ([1]; MCF-7, 1 µM): 0.18 fold; ALDH (+) Cell number (10^4 cells) ([1]; MCF-7, 1 µM): 0.14 10^4 cells and 0.08 10^4 cells and 0.05 10^4 cells; ALDH (-) Cell number (10^4 cells) ([1]; MCF-7, 1 µM): 23.86 10^4 cells and 20.92 10^4 cells and 25.95 10^4 cells; cytotoxicity against ALDH-positive cells ([1]; MCF-7, lower concentrations): selective and potent cytotoxicity against ALDH-positive cells
C=C1CCC2C(C)(CCC=C(C)C)C(O)CCC2(C)C1Cc1c(OC)oc(CO)c(C)c1=O (centres unmarked) [Compound 16] | 0.87 | 1.00 | 0.62% and 1.01% and 0.96% | did not affect sphere formation |  |  |  |  | 
C=C1CC[C@H]2[C@]3(C)C[C@@H](C=C(C)C)O[C@H]3CC[C@]2(C)[C@@H]1Cc1c(OC)oc(CO)c(C)c1=O [Compound 17] | 0.65 | 0.75 | 0.66% and 0.68% and 0.60% |  |  |  |  |  | 
C=C1CC[C@H]2[C@]3(C)C[C@H](C=C(C)C)O[C@H]3CC[C@]2(C)[C@@H]1Cc1c(OC)oc(CO)c(C)c1=O [Compound 18] | 0.64 | 0.74 | 0.66% and 0.58% and 0.68% |  |  |  |  |  | 
C=C1CC[C@@H]2[C@](C)(CC[C@H]3O[C@H](C=C(C)C)C[C@@]23C)[C@@H]1Cc1c(OC)oc(CO)c(C)c1=O [Compound 20] | 0.77 | 0.89 | 0.76% and 0.80% |  |  |  |  |  | 
C=C1CC[C@@H]2[C@](C)(CC[C@H]3O[C@H](C=C(C)C)C[C@@]23C)[C@@H]1Cc1c(OC)oc(C)c(C)c1=O [Compound 22, O-methylated higginsianin A] | 0.41 | 0.47 | 0.40% and 0.42% | clearly inhibited sphere formation | reduced the population of ALDH-positive cells | 0.38 | 0.53 | 0.4% and 0.5% and 0.7% | 
C=C1CCC2C3(C)CC(C=C(C)C)OC3CCC2(C)C1Cc1c(OC)oc(C)c(C)c1=O (centres unmarked) [Compound 23] | 0.66 | 0.76 | 0.60% and 0.72% and 0.66% |  |  |  |  |  | 
